Assay results from patent publication US20250221410A1, “SUBSTITUTED 2-C-AZINES AND SALTS THEREOF, AND USE THEREOF AS HERBICIDAL ACTIVE SUBSTANCES” (BAYER AKTIENGESELLSCHAFT, priority 2022, published 2025).

Legend:
Format in all cases: in vivo
[1] = tested on: ECHCG: Echinochloa crus-galli; assay: Post-emergence herbicidal efficacy at 1280 g/ha, ECHCG; details: rated visually after about 3 weeks vs untreated controls, 100% = plants have died, 0% = like control plants
How it was run: (§1)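 Weeds grown in sandy loam in the greenhouse were sprayed at the one-leaf stage, 2 to 3 weeks after sowing, with WP or EC formulations in water plus 0.5% additive at 600 L/ha. Damage was scored visually about 3 weeks later against untreated controls (0% = like control, 100% = plants dead).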

[2] = tested on: ECHCG: Echinochloa crus-galli; assay: Pre-emergence herbicide efficacy at 1280 g/ha, ECHCG; details: visual scoring after about 3 weeks vs untreated controls
How it was run: (§2)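 Pre-emergence pot test in sandy loam: WP or EC formulations sprayed onto covering soil after sowing, as aqueous suspension/emulsion with 0.5% additive at 600 L/ha water. Plants grown in greenhouse; after about 3 weeks, efficacy scored visually as % versus untreated controls (100% = dead, 0% = like control).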

[3] = tested on: AMARE: Amaranthus retroflexus; assay: Pre-emergence herbicide efficacy at 1280 g/ha, AMARE; details: visual scoring after about 3 weeks vs untreated controls
How it was run: as §2

[4] = tested on: DIGSA: Digitaria sanguinalis; assay: Pre-emergence herbicide efficacy at 1280 g/ha, DIGSA; details: visual scoring after about 3 weeks vs untreated controls
How it was run: as §2

VIOTR: Viola tricolor [5] = assay: Pre-emergence herbicide efficacy at 80 g/ha, VIOTR; details: scored visually after about 3 weeks
Text: Seeds of monocotyledonous and dicotyledonous weed plants and crop plants were placed in plastic or organic planting pots and covered with soil. The compounds of the invention, formulated in the form of wettable powders (WP) or as emulsion concentrates (EC), were then applied to the surface of the covering soil as aqueous suspension or emulsion with addition of 0.5% additive at a water application rate equivalent to 600 l/ha. After the treatment, the pots were placed in a greenhouse and kept under good growth conditions for the test plants. After about 3 weeks, the efficacy of the preparations was scored visually in comparison with untreated controls as percentages. For example, 100% activity=the plants have died, 0% activity=like control plants. Tables D1 to D12 below show the effects of selected compounds of the general formula (I) according to Table 1 on various harmful plants and an application rate corresponding to 80 g/ha, which were obtained by the experimental procedure mentioned above.

VERPE: Veronica persica [6] = assay: Post-emergence herbicidal efficacy at 1280 g/ha, VERPE; details: visual rating about 3 weeks after treatment vs untreated controls
How it was run: as §1

KCHSC: Kochia scoparia [7] = assay: Post-emergence herbicidal efficacy at 80 g/ha, KCHSC; details: visual rating about 3 weeks after treatment vs untreated controls
Protocol: (§3) Seeds of monocotyledonous and dicotyledonous weeds and crop plants were placed in sandy loam in plastic or organic planting pots, covered with soil and cultivated in a greenhouse under controlled growth conditions. 2 to 3 weeks after sowing, the test plants were treated at the one-leaf stage. The compounds of the invention, formulated in the form of wettable powders (WP) or as emulsion concentrates (EC), were then sprayed onto the green parts of the plants as aqueous suspension or emulsion with addition of 0.5% additive at a water application rate of 600 l/ha (converted). After the test plants had been kept in the greenhouse under optimum growth conditions for about 3 weeks, the activity of the preparations was rated visually in comparison to untreated controls. For example, 100% activity=the plants have died, 0% activity=like control plants. Tables B1 to B10 below show the effects of selected compounds of the general formula (I) according to Table 1 on various harmful plants and an application rate corresponding to 80 g/ha, which were obtained by the experimental procedure mentioned above.

STEME: Stellaria media [8] = assay: Post-emergence herbicidal efficacy at 1280 g/ha, STEME; details: visual rating about 3 weeks after treatment vs untreated controls
How it was run: as §1

[9] = tested on: ABUTH: Abutilon theophrasti; assay: Post-emergence herbicidal efficacy at 1280 g/ha, ABUTH; details: rated visually after about 3 weeks vs untreated controls, 100% = plants have died, 0% = like control plants
How it was run: as §1

POAAN: Poa annua [10] = assay: Pre-emergence herbicide efficacy at 1280 g/ha, POAAN; details: visual scoring after about 3 weeks vs untreated controls
How it was run: as §2

[11] = tested on: ALOMY: Alopecurus myosuroides; assay: Pre-emergence herbicide efficacy at 1280 g/ha, ALOMY; details: visual scoring after about 3 weeks vs untreated controls
Text: (§4) Seeds of mono- and dicotyledonous weed plants were placed in plastic pots in sandy loam soil (doubly sown with one species each of mono- or dicotyledonous weed plants per pot) and covered with soil. The compounds of the invention, formulated in the form of wettable powders (WP) or as emulsion concentrates (EC), were then applied to the surface of the covering soil as aqueous suspension or emulsion with addition of 0.5% additive at a water application rate of 600 litres per hectare (converted). After the treatment, the pots were placed in a greenhouse and kept under good growth conditions for the test plants. After about 3 weeks, the efficacy of the preparations was scored visually in comparison with untreated controls as percentages. For example, 100% activity=the plants have died, 0% activity=like control plants. Tables C1 to C12 below show the effects of selected compounds of the general formula (I) according to Table 1 on various harmful plants and at an application rate corresponding to 1280 g/ha, which were obtained by the trial procedure specified above.

VERPE: Veronica persica [12] = assay: Post-emergence herbicidal efficacy at 80 g/ha, VERPE; details: visual rating about 3 weeks after treatment vs untreated controls
How it was run: (§5)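 Greenhouse plants grown in sandy loam were sprayed at the one-leaf stage, 2 to 3 weeks after sowing, with WP or EC formulations in water containing 0.5% additive at 600 l/ha. Visual rating against untreated controls came about 3 weeks later (100% = dead, 0% = as control).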

LOLRI: Lolium rigidum [13] = assay: Post-emergence herbicidal efficacy at 1280 g/ha, LOLRI; details: visual rating about 3 weeks after treatment vs untreated controls
Protocol: (§6) Seeds of mono- and dicotyledonous weed plants were placed in plastic pots in sandy loam soil (doubly sown with in each case one species of mono- or dicotyledonous weed plants per pot), covered with soil and cultivated in a greenhouse under controlled growth conditions. 2 to 3 weeks after sowing, the test plants were treated at the one-leaf stage. The compounds of the invention, formulated in the form of wettable powders (WP) or as emulsion concentrates (EC), were applied to the green parts of the plants as aqueous suspension or emulsion with addition of 0.5% additive at a water application rate equivalent to 600 litres per hectare. After the test plants had been kept in the greenhouse under optimum growth conditions for about 3 weeks, the activity of the preparations was rated visually in comparison to untreated controls. For example, 100% activity=the plants have died, 0% activity=like control plants. Tables A1 to A12 below show the effects of selected compounds of the general formula (I) according to Table 1 on various harmful plants and at an application rate corresponding to 1280 g/ha, which were obtained by the trial procedure specified above.

KCHSC: Kochia scoparia [14] = assay: Pre-emergence herbicide efficacy at 1280 g/ha, KCHSC; details: visual scoring after about 3 weeks vs untreated controls
How it was run: as §2

[15] = tested on: ALOMY: Alopecurus myosuroides; assay: Post-emergence herbicidal efficacy at 1280 g/ha, ALOMY; details: rated visually after about 3 weeks vs untreated controls, 100% = plants have died, 0% = like control plants
Protocol: as §6

SETVI: Setaria viridis [16] = assay: Post-emergence herbicidal efficacy at 1280 g/ha, SETVI; details: visual rating about 3 weeks after treatment vs untreated controls
How it was run: as §1

KCHSC: Kochia scoparia [17] = assay: Post-emergence herbicidal efficacy at 1280 g/ha, KCHSC; details: visual rating about 3 weeks after treatment vs untreated controls
How it was run: as §1

[18] = tested on: DIGSA: Digitaria sanguinalis; assay: Post-emergence herbicidal efficacy at 1280 g/ha, DIGSA; details: rated visually after about 3 weeks vs untreated controls, 100% = plants have died, 0% = like control plants
How it was run: as §1

LOLRI: Lolium rigidum [19] = assay: Pre-emergence herbicide efficacy at 1280 g/ha, LOLRI; details: visual scoring after about 3 weeks vs untreated controls
Text: as §4

SETVI: Setaria viridis [20] = assay: Pre-emergence herbicide efficacy at 1280 g/ha, SETVI; details: visual scoring vs untreated controls
How it was run: as §2

[21] = tested on: AMARE: Amaranthus retroflexus; assay: Post-emergence herbicidal efficacy at 1280 g/ha, AMARE; details: rated visually after about 3 weeks vs untreated controls, 100% = plants have died, 0% = like control plants
How it was run: as §1

VERPE: Veronica persica [22] = assay: Pre-emergence herbicide efficacy at 1280 g/ha, VERPE; details: visual scoring vs untreated controls
How it was run: as §2

[23] = tested on: ABUTH: Abutilon theophrasti; assay: Pre-emergence herbicide efficacy at 1280 g/ha, ABUTH; details: visual scoring after about 3 weeks vs untreated controls
How it was run: as §2

[24] = tested on: MATIN: Matricaria inodora; assay: Pre-emergence herbicide efficacy at 1280 g/ha, MATIN; details: visual scoring after about 3 weeks vs untreated controls
How it was run: as §2

[25] = tested on: AMARE: Amaranthus retroflexus; assay: Post-emergence herbicidal efficacy at 80 g/ha, AMARE; details: visual rating about 3 weeks after treatment vs untreated controls
How it was run: as §5

VIOTR: Viola tricolor [26] = assay: Post-emergence herbicidal efficacy at 80 g/ha, VIOTR; details: visual rating about 3 weeks after treatment vs untreated controls
Protocol: as §3

STEME: Stellaria media [27] = assay: Pre-emergence herbicide efficacy at 1280 g/ha, STEME; details: visual scoring vs untreated controls
How it was run: as §2

POAAN: Poa annua [28] = assay: Post-emergence herbicidal efficacy at 1280 g/ha, POAAN; details: visual rating about 3 weeks after treatment vs untreated controls
How it was run: as §1

## Fc1ccc(Oc2c(Cc3ncc(Cl)cn3)cccc2C(F)(F)F)cc1 [Example 1-40]
[1]
  Post-emergence efficacy at 1280 g/ha against ECHCG in %: 100%
[2]
  Pre-emergence efficacy against ECHCG: 100%
[3]
  Pre-emergence efficacy against AMARE: 100%
[4]
  Pre-emergence efficacy against DIGSA: 100%
VIOTR: Viola tricolor [5]
  Pre-emergence efficacy against VIOTR in %: 100%
VERPE: Veronica persica [6]
  Post-emergence efficacy against VERPE: 100%
KCHSC: Kochia scoparia [7]
  Post-emergence efficacy against KCHSC: 90%
STEME: Stellaria media [8]
  Post-emergence efficacy against STEME: 100%
[9]
  Post-emergence efficacy at 1280 g/ha against ABUTH in %: 100%
POAAN: Poa annua [10]
  Pre-emergence efficacy against POAAN: 100%
[11]
  Pre-emergence efficacy against ALOMY: 100%
VERPE: Veronica persica [12]
  Post-emergence efficacy against VERPE: 90%
LOLRI: Lolium rigidum [13]
  Post-emergence efficacy against LOLRI: 100%
KCHSC: Kochia scoparia [14]
  Pre-emergence efficacy against KCHSC: 90%
[15]
  Post-emergence efficacy at 1280 g/ha against ALOMY in %: 100%
SETVI: Setaria viridis [16]
  Post-emergence efficacy against SETVI: 90%
KCHSC: Kochia scoparia [17]
  Post-emergence efficacy against KCHSC: 100%
[18]
  Post-emergence efficacy at 1280 g/ha against DIGSA in %: 90%
LOLRI: Lolium rigidum [19]
  Pre-emergence efficacy against LOLRI: 100%
SETVI: Setaria viridis [20]
  Pre-emergence efficacy against SETVI in %: 100%
[21]
  Post-emergence efficacy at 1280 g/ha against AMARE in %: 100%
VERPE: Veronica persica [22]
  Pre-emergence efficacy against VERPE in %: 100%
[23]
  Pre-emergence efficacy against ABUTH: 100%
[24]
  Pre-emergence efficacy against MATIN: 90%
[25]
  Post-emergence efficacy against AMARE: 90%
VIOTR: Viola tricolor [26]
  Post-emergence efficacy against VIOTR: 100%
STEME: Stellaria media [27]
  Pre-emergence efficacy against STEME in %: 100%
POAAN: Poa annua [28]
  Post-emergence efficacy against POAAN: 90%
